# Laboratory results as given in patent publication US9937250B2, “Immunogenic tumor associated stromal cell antigen peptides and methods of their use” (University of Pittsburgh—Of the Commonwealth System of …, priority 2011, dated 2018).
# Assays:
# MC38 colon carcinoma = experiment: MC38 protection (prophylactic vaccination) model; type: in vivo, HHD mice
# Text: FIGS. 9A-9B show a series of graphs illustrating induction of specific/protective CD8^+ T cells reactive against TASA as a consequence of DC/peptide-based vaccination. In FIG. 9A, HHD mice (five animals/cohort) were vaccinated twice (d-14, d-7) subcutaneously with PBS or with isologous DC.IL12 pulsed with PBS or synthetic peptides (Table 6) derived from the indicated TASA. In cases where more than 1 peptide was identified for a given target antigen, an equimolar pool of the indicated peptides (each 10 μM) was pulsed onto DC.IL12 and used for vaccination in the relevant cohort. One week after the second immunization, spleens were harvested and splenic CD8^+ T cells isolated using MACS-beads (Miltenyi). T cells were stimulated in vitro for 48 h using the HLA-A2^+ T2 cell line pulsed with relevant TASA vs. irrelevant HIV-nef190-198 ([…]; ref. 24) peptides. Cell-free supernatants were then recovered and IFN-γ levels by ELISA. Data are reported as mean+/−SD for triplicate ELISA determinations, and are representative of 3 independent experiments performed. *p<0.05 vs. HIV-nef control peptide responses. In FIG. 9B, HHD mice were vaccinated twice (days −14 and −7; right flank) subcutaneously with PBS or with isologous DC.IL12 pulsed with PBS or synthetic TASA peptides as indicated in FIG. 1A. In cases where more than 1 peptide is identified for a given target antigen, an equimolar pool of the indicated peptides (each 10 μM) was pulsed onto DC.IL12 and used for vaccination in the relevant cohort. One week after the booster vaccine (i.e. day zero), animals were challenged subcutaneously on their left flank with 2×10^6 MC38 colon carcinoma cells. Tumor growth was then monitored every 3-4 days through day 24. All data represent mean tumor area (in mm^2)+/−SD determined from 5 mice/cohort, and are representative of three independent experiments performed. *p<0.05 versus DC only on the indicated days.
# Vaccine Experiments. For prophylactic experiments, HHD mice were immunized subcutaneously on the right flank with 100 μl PBS or PBS containing 10^6 syngenic DC.IL12 cells that had been untreated or pre-pulsed for 4 h at 37° C. with 10 μM synthetic peptide(s). Immunizations occurred on days −14 and −7, with mice subsequently receiving injections of MC38 (2×10^6) tumor cells in the left flank on d0. In all cases, treatment groups contained 5 mice per cohort. For analysis of tumor cellular composition in repeat experiments, MC38 tumors were isolated by surgical resection 10 days after tumor inoculation and prepared for fluorescence imaging, as described below. […] Mice were then untreated or treated with control, syngenic DC.IL12 or DC.IL12 (10^6 cells injected subcutaneously in the left flank on days 7 and 14) pulsed with synthetic TBVA peptides. In some assays, as indicated, in vivo antibody depletions (on days 6, 13 and 20 post-tumor inoculation to assess early involvement or on days 60 and 67 or 180 and 187 to assess late involvement) of protective CD4^+ T cells or CD8^+ T cells were performed and monitored as previously described (Zhao et al., Mol Ther., 19:805-814, 2011). In all cases, tumor size (area) was monitored every 3-4 days and is reported as mean+/−SD in mm^2.
# The DLK1, EphA2, HBB, NG2, NRP1, NRP2, PDGFRβ, PSMA, RGS5, TEM1, VEGFR1 and VEGFR2 antigens were expressed in situ by blood vessel cells in the MC38 colon carcinoma TME (FIG. 14). Protection of HHD mice against a challenge with HLA-A2^neg MC38 tumor cells injected subcutaneously on day zero was assayed with immunization with TBVA-derived peptides on days −14 and −7. […]
# [1] = system: MC38 tumor microenvironment; experiment: Fluorescence imaging of MC38 tumor sections after prophylactic vaccination; type: in vivo, HHD mice; conditions: day 14 tumors; p<0.05 vs. untreated or DC.IL12/no peptide
# Text: Day 14 MC38 tumors were harvested from HHD mice that had been vaccinated as outlined in FIG. 9B with the indicated peptides (or control PBS or DC.IL12 alone=No peptide). In FIG. 10A, six-micron tissue sections were co-stained with anti-CD8 (green) and anti-NG2 (red) antibodies and imaged by fluorescence microscopy. Blue signal=nuclear counterstain using 4′,6-diamidino-2-phenylindole (DAPI). FIG. 10B provides a summary of the mean+/−SD number of CD8^+ cells per high-power field (HPF) in MC38 tumors isolated from control or vaccinated mice as depicted in FIG. 10A. In FIG. 10C, tissue sections were co-stained with anti-CD31 (green) and anti-NG2 (red) antibodies and imaged by fluorescence microscopy. Blue signal=nuclear counterstain using DAPI. In FIG. 10D, the mean+/−SD number of CD31^+ vessels per HPF of MC38 tumors in control or vaccinated mice are summarized Representative data is depicted from 1 of 3 independent experiments performed. *p<0.05 versus DC only or untreated control mice.
# Fluorescence Imaging of Tumor Sections. Tumor tissue samples were prepared and 6 micron sections prepared as previously reported (Komita et al., Cancer Res., 68:8076-8084, 2008). The following Abs were used: (for T cell analyses), rabbit anti-mouse NG2 (Millipore, Bedford, Mass.) and alexa488-conjugated anti-CD4 or -CD8β antibodies or matching isotype controls (all from BD-Biosciences); (for vascular analyses), rat anti-mouse CD31 (BD-Biosciences) and rabbit anti-mouse NG2 (Millipore) Abs; (for TBVA), rat anti-mouse CD31 (BD-Biosciences) and guinea pig anti-mouse NG2 Abs, along with anti-TBVA as described in Example 1. Imaging was performed using an Olympus Fluoview 500 Confocal microscope (Olympus America, Center Valley, Pa.).
# Protective vaccines incorporating TBVA peptides promote enhanced infiltration of the TME by CD8^+ T cells in association with an inhibition of tumor vascularity. MC38 tumor lesions from all cohorts of animals with evidence of disease on day 14 (post-tumor inoculation) were isolated and immunofluorescence microscopy on tumor sections was performed. […] In marked contrast, CD4^+ T cell infiltration in the TME was sparse and the data were indistinguishable when comparing control vs. vaccinated mice (FIG. 17). […] Correlative analyses indicated an association between the anti-tumor efficacy of vaccines and their ability to promote CD8^+ T cell infiltration and reduced vascularity in the TME (FIG. 16).
substance,measurement,setting,value
VEGFR2: VEGFR2-derived peptide 773-781 pulsed onto DC or DC.IL12 (VIAMFFWLL; listed as Homo sapiens),Anti-tumor efficacy in MC38 protection model,"MC38 colon carcinoma; DC.IL12 pulsed with a pool of 1 or more peptides derived from the indicated TBVA, vaccination d-14, d-7","+/- (+/-, p < 0.05 versus DC only for 2 consecutive time points)"
same,Protection against HLA-A2neg MC38 tumor challenge,"MC38 colon carcinoma; immunization days -14 and -7, tumor challenge day 0 (FIG. 9B)",minimal protection
same,Suppression in CD31+ vessel counts in the MC38 TME,[1],somewhat less pronounced effects
